Substitutions are numbered along the chain they refer to. Read-outs that look alike come from different tables or passages of the source.
Experiments:
rat M1 Y106A receptor = target: T1, rat M1 Y106A receptor (Rattus norvegicus, UniProt P08482, Y106A); experiment: R-SAT functional assay, Y106A mutant; type: cell-based; conditions: for Shift / EC50 / Eff (%): Table 3; for Shift: EC50 Y106A divided by EC50 wild-type; for Eff (%): maximum response, normalized
T1 construct: expressed in transfected cells
T1 sequence (P08482 1-460 Y106A): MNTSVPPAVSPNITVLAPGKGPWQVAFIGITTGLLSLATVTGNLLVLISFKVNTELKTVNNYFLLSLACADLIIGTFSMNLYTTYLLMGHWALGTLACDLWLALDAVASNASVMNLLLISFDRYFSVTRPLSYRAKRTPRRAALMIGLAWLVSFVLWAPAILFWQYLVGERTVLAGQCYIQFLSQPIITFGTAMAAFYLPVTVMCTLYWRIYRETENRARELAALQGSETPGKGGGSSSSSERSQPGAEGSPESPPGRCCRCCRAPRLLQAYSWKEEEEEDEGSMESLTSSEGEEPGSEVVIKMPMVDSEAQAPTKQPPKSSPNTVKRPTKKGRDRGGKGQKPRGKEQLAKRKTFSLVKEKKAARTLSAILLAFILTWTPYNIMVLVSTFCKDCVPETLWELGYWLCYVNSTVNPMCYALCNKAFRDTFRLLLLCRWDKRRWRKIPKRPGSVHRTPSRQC
Experimental: Cells are co-transfected for 18 h with DMEM containing 0.08 micrograms/ml of an expression vector for the expression of the mutant receptor and 0.3 micrograms/ml pSI-Bgal (Promega, Madison Wis.), and 0.5% v/v Polyfect (Qiagen, Valencia Calif.), as recommended by the manufacturer. On day three, the medium is replaced with DMEM containing 1% PSG, 0.5% calf serum, 2% cyto-sf3 (Kemp Biotechnologies, Frederick, Md.), and varying concentrations of the compounds to be tested. Cells are grown in a humidified atmosphere with 5% ambient CO2 for 5 days. The media is removed from the plates, and beta-galactosidase activity is measured by the addition of o-nitrophenyl -d-galactopyranoside in phosphate-buffered saline with 5% Nonidet P-40. […] The following equation is fitted to the data using GraphPad Prism software (San Diego, Calif.):
NIH-3T3 cells were grown in 96-well tissue culture plates to 70 to 80% confluence in Dulbecco's modified essential media (DMEM) supplemented with 100 units/ml penicillin, 100 micrograms/ml streptomycin, 0.3 mg/ml L-glutamine (1% PSG, GIBCO) and 10% calf serum (Sigma-Aldrich). Cells were transfected for 18 h with DMEM containing 0.08 micrograms/ml receptor DNA and 0.3 micrograms/ml pSI-Bgal (Promega, Madison Wis.), 0.5% v/v Polyfect (Qiagen, Valencia Calif.). Medium was replaced with DMEM containing 1% PSG, 0.5% calf serum, 2% cyto-sf3 (Kemp Biotechnologies, Frederick, Md.), and varying concentrations of ligand. […] Cells were grown in a humidified atmosphere with 5% ambient CO2 for 5 days. Medium was removed from the plates, and beta-galactosidase activity was measured by the addition of o-nitrophenyl -d-galactopyranoside in phosphate-buffered saline with 5% Nonidet P-40.

[1] = target: T2, CHO cell membranes expressing the muscarinic M1 receptor (Homo sapiens, UniProt P11229); experiment: Equilibrium ^3H-NMS binding at 2 nM and 10 nM ^3H-NMS
T2 construct: expressed in transfected cells; host or cells: CHO
T2 sequence (P11229 1-460): T1 sequence (P08482 1-460 Y106A) with V5A, A106Y, S254T, S309P, K320R, G337A, V413I

rat M1 S109A receptor = target: T3, rat M1 S109A receptor (Rattus norvegicus, UniProt P08482, S109A); experiment: ^3H-NMS radioligand binding, S109A; conditions: for Shift: Ki S109A divided by Ki wild-type
T3 construct: expressed in transfected cells
T3 sequence (P08482 1-460 S109A): T1 sequence (P08482 1-460 Y106A) with A106Y, S109A
Experimental: Briefly, cell homogenates are prepared from cells transiently or stably expressing wild type or mutant receptors. For transiently transfected cells, HEK cells are transfected with receptor of interest and cells harvested 48 hours post transfection. Cells expressing the receptor, stably or transiently, are harvested using phosphate buffered saline containing 5 mM EDTA, cells centrifuged at low speed and pellet re-suspended in binding buffer. Cell suspension is polytroned and centrifuged at 15,000×g. The pellet is resuspended in binding buffer and centrifugation repeated two more times. The washed cell homogenates are used for the competition binding assays. Competition binding assays are carried out in the presence of fixed amount of cell homogenate, fixed concentration of radioactively labeled orthosteric or allosteric ligand and varying concentrations of the cal under study using appropriate buffer. Incubations are carried out at room temperature for 2 hours. Incubations are terminated by filtration onto GF/B filters using Packard cell harvester followed by 3 washes with ice-cold buffer. Radioactivity retained on the filters is quantitated using Packard Top Count using Microscint 20 scintillation fluid. […] The membranes prepared above are incubated with a labeled ligand in 25 mM sodium phosphate, 5 mM magnesium chloride, 0.01% BSA two hours at room temperature. The binding reaction is stopped by rapid filtration onto GF/B filters. […] The pKd values (pKd=−log Kd) of the labeled ligand are calculated.
Radioligand binding assays were carried out in 25 mM sodium phosphate, 5 mM magnesium chloride, 0.01% BSA. Incubations were for two hours at room temperature, and reactions were stopped by rapid filtration onto GF/B filters.

[2] = ^3H-NMS 2 nM and 10 nM, result in words

| Compound | Shift (rat M1 Y106A receptor) | EC50 (rat M1 Y106A receptor; Y106A) [nM] | Eff (%) (rat M1 Y106A receptor; Y106A) | displacement of ^3H-NMS [1] | IC50 (rat M1 S109A receptor) [nM] | Shift (rat M1 S109A receptor) | displacement of ^3H-NMS [1, 2] | Emax (rat M1 Y106A receptor; R-SAT, Y106A, read-out: increase of maximum response over response at wild-type) [%] |
| --- | --- | --- | --- | --- | --- | --- | --- | --- |
| CCCCC1CCN(CCCC(=O)c2ccccc2C)CC1 [AC-42, 4-n-butyl-1-[4-(2-methylphenyl)-4-oxo-1-butyl] piperidine hydrogen chloride] | >8 | > 1000 | >30 ± — % | complete displacement of ^3H-NMS was not observed | 2510 | 0.5 |  |  |
| CCCCC1CCN(CCCN2C(=O)COc3cc(F)ccc32)CC1 [AC-260584, 4-[3-(4-Butyl-piperidin-1-yl)-propyl]-7-fluoro-4H-benzo [1,4]oxazin-3-one] | 6 | 79.4 | 69 ± 3% |  | 1580 | 1 | completely displace |  |
| Clc1ccc2c(c1)N=C(N1CCNCC1)c1ccccc1N2 [NDMC, 8-chloro-11-(1-piperazinyl)-5H-dibenzo [b,e] [1,4] diazepine] | 2 | 100 | 112 ± 15% |  | 631 | 4 | completely displace | 40 |

Reference: patent US20090209525A1, “ENABLING METHODS TO IDENTIFY ALLOSTERIC MODULATORS OF RECEPTOR ACTIVITY” (priority 2006, published 2009)
